Read-outs that look alike come from different tables or passages of the source.

Holding throughout (format): in vivo
Test [1] has as its system giant foxtail (Setaria faberii). Kind of test: Test A preemergence. As to conditions: Setaria faberi, pre-emergence, 240 h; for pest or weed control at 125 g/ha: 125 g ai/ha, 0 to 100 scale where 0 is no effect and 100 is complete control; for pest or weed control at 500 g/ha: 500 g ai/ha. The method in brief:
(§1)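 Preemergence directed soil spray on seeded pots, or postemergence application to plants 2–10 cm, one- to two-leaf. Solvent mixture non-phytotoxic, with surfactant. Scored ~10 d later, visually, 0–100 vs untreated.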

The test system of test [2] is Galium (catchweed bedstraw, Galium aparine). Briefly: Test A postemergence. To be noted: Galium, post-emergence, 240 h, postemergence; for pest or weed control at 125 g/ha: 125 g ai/ha. Put shortly: as §1
For test [3], the system named is Kochia (Kochia scoparia). Briefly: Test A postemergence. As to conditions: Bassia scoparia, post-emergence, 240 h, postemergence; for pest or weed control at 125 g/ha: 125 g ai/ha. Put shortly:
as §1

Test [4] has as its system barnyardgrass (Echinochloa crus-galli). Kind of test: Test A postemergence. To be noted: Echinochloa crus-galli, post-emergence, 240 h, postemergence; for pest or weed control at 125 g/ha: 125 g ai/ha. The method in brief: as §1
Test [5] deals with blackgrass (Alopecurus myosuroides). Kind of test: Test A postemergence. As to conditions: Alopecurus myosuroides, post-emergence, 240 h, postemergence; for pest or weed control at 125 g/ha: 125 g ai/ha. The method in brief:
as §1

The test system of test [6] is corn (Zea mays). Briefly: Test A postemergence. As to conditions: Zea mays, post-emergence, 240 h, postemergence; for plant injury at 125 g/ha: 125 g ai/ha. Put shortly: as §1
The test system of test [7] is giant foxtail (Setaria faberii). Kind of test: Test A postemergence. To be noted: Setaria faberi, post-emergence, 240 h, postemergence; for pest or weed control at 125 g/ha: 125 g ai/ha. The method in brief: as §1
Test [8] concerns pigweed (Amaranthus retroflexus). Briefly: Test A postemergence. To be noted: Amaranthus retroflexus, post-emergence, 240 h, postemergence; for pest or weed control at 125 g/ha: 125 g ai/ha. The method in brief:
as §1

The subject of test [9] is ragweed (common ragweed, Ambrosia elatior). Briefly: Test A postemergence. To be noted: Ambrosia artemisiifolia, post-emergence, 240 h, postemergence; for pest or weed control at 125 g/ha: 125 g ai/ha. The method in brief:
as §1

Test [10] deals with ryegrass, Italian (Italian ryegrass, Lolium multiflorum). Kind of test: Test A postemergence. As to conditions: Lolium multiflorum, post-emergence, 240 h, postemergence; for pest or weed control at 125 g/ha: 125 g ai/ha. Put shortly: as §1
Test [11] has as its system wheat (Triticum aestivum). Kind of test: Test A postemergence. As to conditions: Triticum aestivum, post-emergence, 240 h, postemergence; for plant injury at 125 g/ha: 125 g ai/ha. The method in brief: as §1
Test [12] relates to barnyardgrass (Echinochloa crus-galli). Kind of test: Test B flooded paddy test. As to conditions: Echinochloa crus-galli, 250 g ai/ha, Flood, read-out: Barnyardgrass plant response rating. The method in brief:
(§2)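 Evaluation by eye, against controls, occurred 13–15 d post-treatment in a greenhouse, using a 0 (no effect) to 100 (complete control) scale. Application was into the paddy water, 3 cm deep over the soil, on 2-leaf plants.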

Test [13] deals with ducksalad (Heteranthera limosa). Kind of test: Test B flooded paddy test. As to conditions: Heteranthera limosa, 250 g ai/ha, Flood, read-out: Ducksalad plant response rating. Put shortly: as §2
Test [14] has as its system rice (Oryra sativa). Kind of test: Test B flooded paddy test. To be noted: Oryza sativa, 250 g ai/ha, Flood, read-out: Rice plant response rating. The method in brief: as §2
Test [15] relates to sedge, umbrella (small-flower umbrella sedge, Cyperus difformis). Kind of test: Test B flooded paddy test. As to conditions: Cyperus difformis, 250 g ai/ha, Flood, read-out: Sedge, Umbrella plant response rating. Put shortly:
as §2

Setting [16] is: 0 to 100 scale where 0 is no effect and 100 is complete control.
The mark [17] stands for this setting: preemergence, read-out: Foxtail, Giant plant response rating.
Setting [18] is: Preemergence, visual injury vs untreated controls after approximately 10 d, read-out: Foxtail, Giant plant response rating (0 to 100 scale where 0 is no effect and 100 is complete control).
Where [19] appears, read: visual injury rating after approximately 10 d, read-out: Galium plant response rating (0 to 100 scale, 0 no effect, 100 complete control).
[20] abbreviates: visual injury rating after approximately 10 d, read-out: Kochia plant response rating (0 to 100 scale, 0 no effect, 100 complete control).
[21] abbreviates: visual injury rating after approximately 10 d, read-out: Barnyardgrass plant response rating (0 to 100 scale, 0 no effect, 100 complete control).
Where [22] appears, read: visual injury rating after approximately 10 d, read-out: Blackgrass plant response rating (0 to 100 scale, 0 no effect, 100 complete control).
[23] abbreviates: visual injury rating after approximately 10 d, read-out: Corn plant response rating (0 to 100 scale, 0 no effect, 100 complete control).
[24] abbreviates: visual injury rating after approximately 10 d, read-out: Foxtail, Giant plant response rating (0 to 100 scale, 0 no effect, 100 complete control).
[25] abbreviates: visual injury rating after approximately 10 d, read-out: Pigweed plant response rating (0 to 100 scale, 0 no effect, 100 complete control).
The mark [26] stands for this setting: visual injury rating after approximately 10 d, read-out: Ragweed plant response rating (0 to 100 scale, 0 no effect, 100 complete control).
The mark [27] stands for this setting: visual injury rating after approximately 10 d, read-out: Ryegrass, Italian plant response rating (0 to 100 scale, 0 no effect, 100 complete control).
[28] abbreviates: visual injury rating after approximately 10 d, read-out: Wheat plant response rating (0 to 100 scale, 0 no effect, 100 complete control).
The mark [29] stands for this setting: scale of 0 to 100 where 0 is no effect and 100 is complete control.

Regarding `CN1C[C@H](c2cc(F)cc(F)c2)[C@@H](C(=O)Nc2ncccc2Cl)C1=O` [Compound 1097], the pest or weed control at 125 g/ha was found to be 0% in test [1] (preemergence, approx. 10 d, read-out: Foxtail, Giant plant response rating); 0% in [2] (visual injury on 0 to 100 scale (0 no effect, 100 complete control), approx. 10 d, read-out: Galium plant response rating); 0% in test [3] (visual injury on 0 to 100 scale (0 no effect, 100 complete control), approx. 10 d, read-out: Kochia plant response rating); 0% in test [4] (visual injury on 0 to 100 scale (0 no effect, 100 complete control), approx. 10 d, read-out: Barnyardgrass plant response rating); 0% in [5] (visual injury on 0 to 100 scale (0 no effect, 100 complete control), approx. 10 d, read-out: Blackgrass plant response rating); 0% in test [7] (visual injury on 0 to 100 scale (0 no effect, 100 complete control), approx. 10 d, read-out: Foxtail, Giant plant response rating). Also, the pest or weed control at 125 g/ha in [8] (visual injury on 0 to 100 scale (0 no effect, 100 complete control), approx. 10 d, read-out: Pigweed plant response rating) was determined as 0%; in test [9] (visual injury on 0 to 100 scale (0 no effect, 100 complete control), approx. 10 d, read-out: Ragweed plant response rating), 0%; in test [10] (visual injury on 0 to 100 scale (0 no effect, 100 complete control), approx. 10 d, read-out: Ryegrass, Italian plant response rating), 0%. Also, the pest or weed control at 500 g/ha was 0% in test [1] (preemergence, visual injury rating about 10 d after treatment, 0 to 100 scale (0 no effect, 100 complete control), read-out: Foxtail, Giant plant response rating); 0% in test [2] (500 g ai/ha, 0 to 100 scale, 0 is no effect, 100 is complete control, read-out: Galium plant response rating); 0% in [3] (500 g ai/ha, 0 to 100 scale, 0 is no effect, 100 is complete control, read-out: Kochia plant response rating); 0% in test [4] (500 g ai/ha, 0 to 100 scale, 0 is no effect, 100 is complete control, read-out: Barnyardgrass plant response rating); 0% in [5] (500 g ai/ha, 0 to 100 scale, 0 is no effect, 100 is complete control, read-out: Blackgrass plant response rating); 0% in [7] (500 g ai/ha, 0 to 100 scale, 0 is no effect, 100 is complete control, read-out: Foxtail, Giant plant response rating). Besides, the pest or weed control at 500 g/ha in test [8] (500 g ai/ha, 0 to 100 scale, 0 is no effect, 100 is complete control, read-out: Pigweed plant response rating) is 0%; in test [9] (500 g ai/ha, 0 to 100 scale, 0 is no effect, 100 is complete control, read-out: Ragweed plant response rating) it was 0%; in test [10] (500 g ai/ha, 0 to 100 scale, 0 is no effect, 100 is complete control, read-out: Ryegrass, Italian plant response rating), 0%. The plant injury at 125 g/ha in test [6] (visual injury on 0 to 100 scale (0 no effect, 100 complete control), approx. 10 d, read-out: Corn plant response rating) amounted to 0%; in [11] (visual injury on 0 to 100 scale (0 no effect, 100 complete control), approx. 10 d, read-out: Wheat plant response rating), 0%. Also, the plant injury at 500 g/ha in test [6] (500 g ai/ha, 0 to 100 scale, 0 is no effect, 100 is complete control, read-out: Corn plant response rating) came to 0%; in [11] (500 g ai/ha, 0 to 100 scale, 0 is no effect, 100 is complete control, read-out: Wheat plant response rating), 0%. The pest or weed control at 250 g/ha in test [12] (setting [16]), in test [13] (setting [16]), in test [14] (setting [16]) and in [15] (setting [16]) was 0% throughout.
Turning to `COc1ccccc1NC(=O)[C@H]1C(=O)N(C)C[C@@H]1c1ccc(C(F)(F)F)cc1` [Compound 843], the pest or weed control at 125 g/ha worked out at 90% in [1] (setting [17]); 30% in test [2] (setting [19]); 40% in test [3] (setting [20]); 40% in [4] (setting [21]); 0% in test [5] (setting [22]); 70% in test [7] (setting [24]). The pest or weed control at 125 g/ha amounted to 20% in test [8] (setting [25]), 0% in [9] (setting [26]) and 0% in [10] (setting [27]). The pest or weed control at 500 g/ha in [1] (setting [18]) is 90%. Besides, the plant injury at 125 g/ha in test [6] (setting [23]) and in [11] (setting [28]) was 0% throughout. The pest or weed control at 250 g/ha was determined as 0% in test [12] (setting [29]), 20% in test [13] (setting [29]), 0% in test [14] (setting [29]) and 0% in [15] (setting [29]).
With `CSc1ccccc1NC(=O)[C@H]1C(=O)N(C)C[C@@H]1c1cc(F)c(F)c(F)c1` [Compound 866], the pest or weed control at 125 g/ha in test [1] (setting [17]) was 90%; in test [2] (setting [19]) it was 20%; in test [3] (setting [20]) it was 20%; in [4] (setting [21]), 60%; in [5] (setting [22]), 0%; in test [7] (setting [24]) it was 70%. The figures for the pest or weed control at 125 g/ha in test [8] (setting [25]), in test [9] (setting [26]) and in test [10] (setting [27]) were 0%, 0% and 20%, respectively. The pest or weed control at 500 g/ha in [1] (setting [18]) is 90%. In addition, the plant injury at 125 g/ha in [6] (setting [23]) came to 30%; in test [11] (setting [28]), 0%. The pest or weed control at 250 g/ha in test [12] (setting [29]) was found to be 35%; in test [13] (setting [29]), 90%; in test [14] (setting [29]) it was 35%; in test [15] (setting [29]), 35%.

For the origin of these results see patent US12077503B2, “Substituted cyclic amides and their use as herbicides” (FMC CORPORATION, priority 2015, dated 2024).
